Experimental findings from patent US6979686B1, “Substituted pyrazoles as p38 kinase inhibitors” (Pharmacia Corporation, priority 2001, dated 2005) are described below.

Molecules are shown by their SMILES.

For one assay, the target named is T1, human p38 kinase alpha (Homo sapiens, UniProt Q16539).
T1 construct: GST (N, cleaved yes); made in house; host or cells: E. coli DH10B
T1 sequence (Q16539 whole entry): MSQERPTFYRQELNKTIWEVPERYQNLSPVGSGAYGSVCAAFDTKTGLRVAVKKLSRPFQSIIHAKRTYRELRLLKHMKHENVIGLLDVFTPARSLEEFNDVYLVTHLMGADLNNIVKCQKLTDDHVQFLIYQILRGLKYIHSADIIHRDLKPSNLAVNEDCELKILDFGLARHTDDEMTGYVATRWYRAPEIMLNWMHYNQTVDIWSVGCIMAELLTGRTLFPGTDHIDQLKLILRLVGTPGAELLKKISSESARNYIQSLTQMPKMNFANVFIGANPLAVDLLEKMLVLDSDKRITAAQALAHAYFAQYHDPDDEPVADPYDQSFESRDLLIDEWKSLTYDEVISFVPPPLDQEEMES
The experiment in a line: p38 kinase in vitro assay, phosphorylation of biotinylated PHAS-I with 32P-ATP. The format is biochemical. To be noted: @ 10.0 uM.
With `Cc1c(-c2ccncc2)c(-c2ccc(F)cc2)nn1CC(=O)N1CCOCC1` [Example B-2366], the “P38 alpha kinase % inhib @ conc.” value is recorded as 70.0% @. Consider `CCN(Cc1c(F)cccc1Cl)C(=O)Cn1nc(-c2ccc(F)cc2)c(-c2ccncc2)c1C` [Example B-2367], for which the “P38 alpha kinase % inhib @ conc.” value turned out to be 46.0% @. Take `CCN1CCN(C(=O)Cn2nc(-c3ccc(F)cc3)c(-c3ccncc3)c2C)CC1` [Example B-2368]: the “P38 alpha kinase % inhib @ conc.” value was determined as 65.0% @.

In the case of `COCCN(C)C(=O)Cn1nc(-c2ccc(F)cc2)c(-c2ccncc2)c1C` [Example B-2374], the “P38 alpha kinase % inhib @ conc.” value worked out at 35.0% @. Consider `Cc1c(-c2ccncc2)c(-c2ccc(F)cc2)nn1CC(=O)N(C)CCc1ccccc1` [Example B-2376], for which the “P38 alpha kinase % inhib @ conc.” value turned out to be 32.0% @. On to `Cc1c(-c2ccncc2)c(-c2ccc(F)cc2)nn1CC(=O)N(Cc1ccco1)CC(C)C` [Example B-2378], for which the “P38 alpha kinase % inhib @ conc.” value is 48.0% @. As to `Cc1c(-c2ccncc2)c(-c2ccc(F)cc2)nn1CC(=O)N1CCSC1` [Example B-2383], the “P38 alpha kinase % inhib @ conc.” value was found to be 63.0% @.

`Cc1c(-c2ccncc2)c(-c2ccc(F)cc2)nn1CC(=O)N(C)CCc1ccncc1` [Example B-2386]: the “P38 alpha kinase IC50, uM or % inhib @ conc. (uM): % inhib” value (“P38 alpha kinase IC50 … % inhib” below) stood at 38.0% @. `CCOC(=O)CN(Cc1ccccn1)C(=O)Cn1nc(-c2ccc(F)cc2)c(-c2ccncc2)c1C` [Example B-2390]: the “P38 alpha kinase IC50 … % inhib” value was found to be 34.0% @. On to `CCN(CC)C1CCN(C(=O)Cn2nc(-c3ccc(F)cc3)c(-c3ccncc3)c2C)C1` (stereo not shown) [Example B-2391], for which the “P38 alpha kinase IC50 … % inhib” value is recorded as 40.0% @. In the case of `COCCN(CC1CCCCC1)C(=O)Cn1nc(-c2ccc(F)cc2)c(-c2ccncc2)c1C` [Example B-2392], the “P38 alpha kinase IC50 … % inhib” value worked out at 63.0% @. With `Cc1c(-c2ccncc2)c(-c2ccc(F)cc2)nn1CC(=O)N(C)CC(N)=O` [Example B-2400], the “P38 alpha kinase IC50 … % inhib” value is 60.0% @.

Turning to `Cc1c(-c2ccncc2)c(-c2ccc(F)cc2)nn1CC(=O)N1CCCCC1` [Example B-2401], the “P38 alpha kinase IC50 … % inhib” value worked out at 78.0% @. For `Cc1c(-c2ccncc2)c(-c2ccc(F)cc2)nn1CC(=O)N(CCc1ccccc1)CCc1ccccn1` [Example B-2402], the “P38 alpha kinase IC50 … % inhib” value came to 43.0% @.

For `Cc1c(-c2ccncc2)c(-c2ccc(F)cc2)nn1CC(=O)N1CCSC1c1ccco1` (stereo not shown) [Example B-2409], the “P38 alpha kinase IC50 … % inhib” value came to 78.0% @. In the case of `Cc1c(-c2ccncc2)c(-c2ccc(F)cc2)nn1CC(=O)N1Cc2ccsc2CC1c1ccc(Cl)cc1` (stereo not shown) [Example B-2410], the “P38 alpha kinase IC50 … % inhib” value was determined as 33.0% @. `Cc1c(-c2ccncc2)c(-c2ccc(F)cc2)nn1CC(=O)N1CCC(N(C)C(=O)OC(C)(C)C)C1` (stereo not shown) [Example B-2413]: the “P38 alpha kinase IC50 … % inhib” value turned out to be 75.0% @.

Regarding `COc1ccc2nc(NC(=O)Cn3nc(-c4ccc(F)cc4)c(-c4ccncc4)c3C)sc2c1` [Example B-2414], the “P38 alpha kinase IC50 … % inhib” value came to 86.0% @.

On to `Cc1c(-c2ccncc2)c(-c2ccc(F)cc2)nn1CC(=O)Nc1ccc(Cl)nc1` [Example B-2415], for which the “P38 alpha kinase IC50 … % inhib” value worked out at 94.0% @. On the same count and under the same terms, under `Cc1c(-c2ccncc2)c(-c2ccc(F)cc2)nn1CC(=O)Nc1ccccc1` [Example B-2416] stands 85.0% @; under `Cc1c(-c2ccncc2)c(-c2ccc(F)cc2)nn1CC(=O)Nc1ccc(Cl)cc1` [Example B-2418], 88.0% @. On to `Cc1c(-c2ccncc2)c(-c2ccc(F)cc2)nn1CC(=O)Nc1ccccc1C(F)(F)F` [Example B-2419], for which the “P38 alpha kinase IC50 … % inhib” value was 86.0% @. As to `CCc1cccc(CC)c1NC(=O)Cn1nc(-c2ccc(F)cc2)c(-c2ccncc2)c1C` [Example B-2420], the “P38 alpha kinase IC50 … % inhib” value came to 70.0% @. On the same count and under the same terms, under `Cc1c(-c2ccncc2)c(-c2ccc(F)cc2)nn1CC(=O)Nc1c(Cl)cccc1Cl` [Example B-2421] stands 89.0% 2.

`Cc1c(-c2ccncc2)c(-c2ccc(F)cc2)nn1CC(=O)Nc1ccccc1Cl` [Example B-2422]: the “P38 alpha kinase IC50 … % inhib” value is recorded as 90.0% @.

Take `Cc1cccc(NC(=O)Cn2nc(-c3ccc(F)cc3)c(-c3ccncc3)c2C)c1` [Example B-2424]: the “P38 alpha kinase IC50 … % inhib” value came to 86.0% @. Turning to `Cc1c(-c2ccncc2)c(-c2ccc(F)cc2)nn1CC(=O)Nc1cc(C(F)(F)F)cc(C(F)(F)F)c1` [Example B-2425], the “P38 alpha kinase IC50 … % inhib” value was 79.0% @. `Cc1c(-c2ccncc2)c(-c2ccc(F)cc2)nn1CC(=O)Nc1cccc(Br)c1` [Example B-2426]: the “P38 alpha kinase IC50 … % inhib” value was determined as 88.0% @. Consider `Cc1c(-c2ccncc2)c(-c2ccc(F)cc2)nn1CC(=O)Nc1ccc(C2CCCCC2)cc1` [Example B-2427], for which the “P38 alpha kinase IC50 … % inhib” value came to 87.0% @.

`CSc1ccccc1NC(=O)Cn1nc(-c2ccc(F)cc2)c(-c2ccncc2)c1C` [Example B-2428]: the “P38 alpha kinase IC50 … % inhib” value is recorded as 82.0% @. As to `Cc1c(-c2ccncc2)c(-c2ccc(F)cc2)nn1CC(=O)Nc1cccc(F)c1` [Example B-2429], the “P38 alpha kinase IC50 … % inhib” value is reported as 92.0% @. `Cc1c(-c2ccncc2)c(-c2ccc(F)cc2)nn1CC(=O)Nc1cc([N+](=O)[O-])cc([N+](=O)[O-])c1` [Example B-2430]: the “P38 alpha kinase IC50 … % inhib” value was determined as 90.0% @. In the case of `COc1ccc(OC)c(NC(=O)Cn2nc(-c3ccc(F)cc3)c(-c3ccncc3)c2C)c1` [Example B-2431], the “P38 alpha kinase IC50 … % inhib” value is 85.0% 2. As to `Cc1c(-c2ccncc2)c(-c2ccc(F)cc2)nn1CC(=O)Nc1ccccc1F` [Example B-2432], the “P38 alpha kinase IC50 … % inhib” value worked out at 86.0% 2. Still for that read-out and setting: under `Cc1c(-c2ccncc2)c(-c2ccc(F)cc2)nn1CC(=O)Nc1ccccc1C(C)C` [Example B-2433] stands 94.0% @. Same read-out and setting: under `Cc1c(-c2ccncc2)c(-c2ccc(F)cc2)nn1CC(=O)Nc1ccccc1Cc1ccccc1` [Example B-2434] stands 92.0% @; under `Cc1c(-c2ccncc2)c(-c2ccc(F)cc2)nn1CC(=O)Nc1ccccc1C(C)(C)C` [Example B-2435], 84.0% @. On the same count and under the same terms, under `CCCCCCOc1ccc(NC(=O)Cn2nc(-c3ccc(F)cc3)c(-c3ccncc3)c2C)cc1` [Example B-2436] stands 80.0% @. In the case of `Cc1c(-c2ccncc2)c(-c2ccc(F)cc2)nn1CC(=O)Nc1ccc(OCc2ccccc2)cc1` [Example B-2437], the “P38 alpha kinase IC50 … % inhib” value worked out at 82.0% @. Still for that read-out and setting: under `Cc1c(-c2ccncc2)c(-c2ccc(F)cc2)nn1CC(=O)Nc1cc(F)cc(F)c1` [Example B-2438] stands 75.0% @. As to `Cc1c(-c2ccncc2)c(-c2ccc(F)cc2)nn1CC(=O)Nc1ccc(C(F)(F)F)cc1` [Example B-2439], the “P38 alpha kinase IC50 … % inhib” value was 81.0% @. In the case of `CCCCNS(=O)(=O)c1cccc(NC(=O)Cn2nc(-c3ccc(F)cc3)c(-c3ccncc3)c2C)c1` [Example B-2440], the “P38 alpha kinase IC50 … % inhib” value stood at 77.0% @. Regarding `Cc1c(-c2ccncc2)c(-c2ccc(F)cc2)nn1CC(=O)NCC(=O)Nc1ccccc1` [Example B-2441], the “P38 alpha kinase IC50 … % inhib” value is given as 86.0% @. On to `Cc1ccc(C)c(C(=O)c2ccccc2NC(=O)Cn2nc(-c3ccc(F)cc3)c(-c3ccncc3)c2C)c1` [Example B-2443], for which the “P38 alpha kinase IC50 … % inhib” value was found to be 84.0% @. In the case of `Cc1c(-c2ccncc2)c(-c2ccc(F)cc2)nn1CC(=O)Nc1ccc(OCCOc2ccccc2)cc1` [Example B-2448], the “P38 alpha kinase IC50 … % inhib” value was 75.0% @.

`Cc1c(-c2ccncc2)c(-c2ccc(F)cc2)nn1CC(=O)Nc1ccccc1Oc1ccc(Cl)cc1` [Example B-2449]: the “P38 alpha kinase IC50 … % inhib” value worked out at 86.0% @.

In the case of `CCOC(=O)c1cc(-c2ccc(NC(=O)Cn3nc(-c4ccc(F)cc4)c(-c4ccncc4)c3C)cc2)oc1C` [Example B-2450], the “P38 alpha kinase IC50 … % inhib” value is on record as 87.0% @.

Turning to `Cc1c(-c2ccncc2)c(-c2ccc(F)cc2)nn1CC(=O)Nc1ccccc1C(=O)NC1CCCCC1` [Example B-2451], the “P38 alpha kinase IC50 … % inhib” value came to 87.0% @. For `CCCCCCCOc1ccc(NC(=O)Cn2nc(-c3ccc(F)cc3)c(-c3ccncc3)c2C)cc1` [Example B-2452], the “P38 alpha kinase IC50 … % inhib” value is listed as 89.0% @.

Take `Cc1c(-c2ccncc2)c(-c2ccc(F)cc2)nn1CC(=O)Nc1ccccc1C(=O)OC(C)C` [Example B-2454]: the “P38 alpha kinase IC50 … % inhib” value is given as 88.0% @. With `Cc1c(-c2ccncc2)c(-c2ccc(F)cc2)nn1CC(=O)Nc1ccc(-n2ccc(C(F)(F)F)n2)cc1` [Example B-2455], the “P38 alpha kinase IC50 … % inhib” value is reported as 87.0% @. On the same count and under the same terms, under `Cc1c(-c2ccncc2)c(-c2ccc(F)cc2)nn1CC(=O)Nc1ccccc1C(=O)NC(C)c1ccccc1` (stereo not shown) [Example B-2456] stands 86.0% @.

Still in this assay, the particulars now being: @ 100.0 uM.
Consider `Cc1c(-c2ccncc2)c(-c2ccc(F)cc2)nn1CC(=O)N(C)Cc1ccccc1` [Example B-2370], for which the “P38 alpha kinase % inhib @ conc.” value was found to be 73% @.

Regarding `Cc1c(-c2ccncc2)c(-c2ccc(F)cc2)nn1CC(=O)N1CCCC1` [Example B-2379], the “P38 alpha kinase % inhib @ conc.” value was 73.0% @.

Regarding `CC(=O)N1CCN(C(=O)Cn2nc(-c3ccc(F)cc3)c(-c3ccncc3)c2C)CC1` [Example B-2380], the “P38 alpha kinase % inhib @ conc.” value worked out at 81% @. In the case of `COc1ccc(CCN(CCC#N)C(=O)Cn2nc(-c3ccc(F)cc3)c(-c3ccncc3)c2C)cc1OC` [Example B-2403], the “P38 alpha kinase IC50 … % inhib” value is reported as 72% @. For the compound `Cc1c(-c2ccncc2)c(-c2ccc(F)cc2)nn1CC(=O)N(CCC#N)CC1CCCO1` (stereo not shown) [Example B-2404], the “P38 alpha kinase IC50 … % inhib” value stood at 58% @. Same read-out and setting: under `CCN(CC)CCN(CCN(CC)CC)C(=O)Cn1nc(-c2ccc(F)cc2)c(-c2ccncc2)c1C` [Example B-2407] stands 47% @.
